From BindingDB's records for doi:10.7270/Q2PR7TCX (The Scripps Research Institute Molecular Screening Center, 2007)

Target: Steroidogenic factor 1 (Homo sapiens, UniProt Q13285)
Assay: inhibition of SF-1 LBD-driven luciferase – cell-based, CHO-K1, Gal4-SF-1 LBD, luciferase luminescence, counter-screen for RORA inhibitor project, dose response (AID 611)
Conditions: not given

Chain of Steroidogenic factor 1 (Q13285 whole entry, the tested form may be a part): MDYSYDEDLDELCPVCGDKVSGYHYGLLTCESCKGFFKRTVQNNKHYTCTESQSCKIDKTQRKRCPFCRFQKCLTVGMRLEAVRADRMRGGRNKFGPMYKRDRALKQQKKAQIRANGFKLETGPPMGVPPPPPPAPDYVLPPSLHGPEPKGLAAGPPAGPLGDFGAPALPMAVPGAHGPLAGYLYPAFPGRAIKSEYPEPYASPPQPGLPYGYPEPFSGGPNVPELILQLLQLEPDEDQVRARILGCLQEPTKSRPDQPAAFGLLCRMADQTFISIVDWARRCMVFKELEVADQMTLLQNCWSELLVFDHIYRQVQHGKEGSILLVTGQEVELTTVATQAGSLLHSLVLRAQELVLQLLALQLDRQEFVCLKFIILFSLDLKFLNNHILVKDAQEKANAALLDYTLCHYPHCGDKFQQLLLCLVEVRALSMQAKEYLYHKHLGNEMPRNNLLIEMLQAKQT

Compared with `O=C1c2ccccc2C(=O)C1c1ccc2ccccc2n1`, `c1ccc(-c2noc(-c3ccc4ccccc4c3)n2)nc1` [2-[5-(2-naphthyl)-1,2,4-oxadiazol-3-yl]pyridine] is 5.5-fold lower in IC50: 4.75 µM for the first, 0.867 µM for the second.

First: CCOc1ccc(OCc2cccc(C(=O)N3CCOCC3)c2)cc1 [4-{3-[(4-ethoxyphenoxy)methyl]benzoyl}morpholine]
Second: O=C(O)c1cccc(COc2ccccc2Cl)c1 [3-[(2-chloranylphenoxy)methyl]benzoic acid]
The IC50 of the first is 7.5-fold higher: 4.35 µM for the first, 0.582 µM for the second. The second is the more potent here.

Compared with `Cc1ccc(-c2nsc3c(N4CCC(C(N)=O)CC4)ncnc23)cc1` [1-(3-p-Tolyl-isothiazolo[4,5-d]pyrimidin-7-yl)-piperidine-4-carboxylic acid amide], `Cc1ccc(-c2csc3ncnc(Sc4nnc(CN5CCCCCC5=O)o4)c23)cc1` [1-[[5-[5-(4-methylphenyl)thieno[2,3-d]pyrimidin-4-yl]sulfanyl-1,3,4-oxadiazol-2-yl]methyl]azepan-2-one] is 4.7-fold higher in IC50: 1.53 µM for the first, 7.12 µM for the second. The first is the more potent here.

Compared with `c1ccc(CNc2ncnc3ccccc23)cc1` [N-benzylquinazolin-4-amine], `CC(C)NCC(O)Cn1c2c(c3ccccc31)CCc1c-2cnn1-c1ccccc1` (stereo not drawn) [1-(3-phenyl-4,5-dihydropyrazolo[4,3-a]carbazol-10-yl)-3-(propan-2-ylamino)-2-propanol] is 2.5-fold lower in IC50: 21.9 µM for the first, 8.75 µM for the second.

Going from `CN(C)c1ccc(NC(=S)c2ccccn2)cc1` [MLS000111989] to `CN(C)c1ccc(-c2nc3ccccc3n2C)cc1` [MLS000089904], the IC50 rises from 3.04 µM to 6.81 µM (2.2-fold).

First: CCCN1C=CC(=C2C(=O)c3ccccc3C2=O)C=C1 [2-(1-propyl-4-pyridinylidene)indene-1,3-dione]
Second: COc1ccccc1-n1nnnc1S(=O)(=O)Cc1ccc(Cl)cc1 [5-(4-chlorobenzyl)sulfonyl-1-(2-methoxyphenyl)tetrazole]
The IC50 of the first is 16-fold lower: 0.431 µM for the first, 7.09 µM for the second.

Compared with `Nc1nc(Cl)nc2c1ncn2[C@H]1C[C@H](O)[C@@H](CO)O1` [2-CHLORO-2'-DEOXYADENOSINE], `CCOC(=O)N1CCC(NC(=O)C2CCCN(Cc3nc(-c4cccc(Cl)c4)oc3C)C2)CC1` (stereo not drawn) [4-[[1-[[2-(3-chlorophenyl)-5-methyl-oxazol-4-yl]methyl]nipecotoyl]amino]piperidine-1-carboxylic acid ethyl ester] is 10-fold higher in IC50: 0.666 µM for the first, 6.81 µM for the second. The first is the more potent here.

Going from `COc1ccc(OC)c(Nc2nc(-c3ccc(O)c(O)c3)cs2)c1` [4-[2-(2,5-Dimethoxy-phenylamino)-thiazol-4-yl]-benzene-1,2-diol] to `COc1ccc(OC)c(NC(=O)CSc2nnnn2-c2ccc3c(c2)OCO3)c1` [2-(1-Benzo[1,3]dioxol-5-yl-1H-tetrazol-5-ylsulfanyl)-N-(2,5-dimethoxy-phenyl)-acetamide], the IC50 falls from 7.17 µM to 2.69 µM (2.7-fold). The second is the more potent here.

Going from `Cc1cc(NC(=O)c2ccc3c(c2)OCCO3)no1` [MLS000064124] to `Cc1oc(-c2ccc3c(c2)OCCO3)cc1C(=O)O` [5-(2,3-dihydro-1,4-benzodioxin-6-yl)-2-methyl-3-furancarboxylic acid], the IC50 falls from 9.29 µM to 3.06 µM (3-fold). The second is the more potent here.

Going from `CC(=O)Nc1ccccc1OCC(=O)c1cc(C)n(Cc2cccs2)c1C` [MLS000056239] to `Cc1ccccc1NC(=O)c1cnc2ccccn2c1=O` [4-keto-N-(o-tolyl)pyrido[1,2-a]pyrimidine-3-carboxamide], the IC50 rises from 0.841 µM to > 11 µM.

`CCCCOC(=O)c1[nH]c2c(c1C)C(=O)CC(c1cc(OC)c(OC)c(OC)c1)C2` (stereo not drawn) and `CCOc1ccc(-c2cc(CCCC(=O)NCCc3ccc(OC)c(OC)c3OC)no2)cc1` [4-(5-p-phenetylisoxazol-3-yl)-N-[2-(2,3,4-trimethoxyphenyl)ethyl]butyramide] are within 1.5-fold of each other in IC50: 6.24 µM for the first, 6.37 µM for the second.

Going from `COCCn1c(C)cc(C(=O)CSc2nnc(C)s2)c1C` [1-[1-(2-methoxyethyl)-2,5-dimethyl-1H-pyrrol-3-yl]-2-[(5-methyl-1,3,4-thiadiazol-2-yl)thio]ethanone] to `COCCNC(=O)CSCc1nc(-c2ccc(SC)cc2)oc1C` [MLS000089367], the IC50 falls from 3.46 µM to 0.656 µM (5.3-fold).

`c1c2c(cc3sc(N4CCCCC4)nc13)OCCO2` [2-(1-piperidinyl)-6,7-dihydro-[1,4]dioxino[2,3-f][1,3]benzothiazole] and `c1ccc2c(c1)CCN(c1nc3cc4c(cc3s1)OCCO4)C2` [2-(3,4-dihydro-1H-isoquinolin-2-yl)-6,7-dihydro-[1,4]dioxino[2,3-f][1,3]benzothiazole] cannot be ordered by IC50: > 3.67 µM for the first, 4.35 µM for the second.

Going from `O=C(CSc1nnnn1-c1ccccc1)Nc1nsc(-c2ccc(Cl)cc2)n1` [MLS000085595] to `Cc1ccc(-c2nnc(SCC(=O)Nc3ccccc3F)o2)cc1` [MLS000114725], the IC50 rises from 5.78 µM to 9.9 µM (1.7-fold). The first is the more potent here.

`COC(=O)C1C(=CN2CCCc3ccccc32)NC(=O)NC1c1ccc(F)cc1` (stereo not drawn) [6-(3,4-dihydro-2H-quinolin-1-ylmethyl)-4-(4-fluorophenyl)-2-keto-3,4-dihydro-1H-pyrimidine-5-carboxylic acid methyl ester] and `Cc1ccnc(NC(=O)CCCOc2cc(=O)n(C)c3ccccc23)c1` [4-(1-methyl-2-oxidanylidene-quinolin-4-yl)oxy-N-(4-methylpyridin-2-yl)butanamide] are within 1.5-fold of each other in IC50: 6.66 µM for the first, 8.98 µM for the second.

`O=C(NC1=NCCS1)C1COc2ccccc2O1` (stereo not drawn) [MLS000056062] and `Cc1cnc(NC(=O)COc2ccccc2Cl)s1` [2-(2-chloranylphenoxy)-N-(5-methyl-1,3-thiazol-2-yl)ethanamide] are within 1.5-fold of each other in IC50: 4.65 µM for the first, 5.63 µM for the second.

Compared with `CCc1ccc(-c2nnn(CCC(=O)OC)n2)cc1`, `CC(C)(C)c1ccc(-c2noc(CCC(N)=O)n2)cc1` [3-[3-(4-tert-butylphenyl)-1,2,4-oxadiazol-5-yl]propanamide] is 100-fold lower in IC50: 6.34 µM for the first, 0.063 µM for the second.

Compared with `Nc1nnnn1N=C/C(Br)=C/c1ccccc1` [1-[[(Z)-2-bromanyl-3-phenyl-prop-2-enylidene]amino]-1,2,3,4-tetrazol-5-amine], `COc1ccc(CCNc2nnc(Sc3nnnn3-c3ccccc3)s2)cc1OC` [MLS000056567] is 1.7-fold higher in IC50: 4.19 µM for the first, 7.21 µM for the second.

`Cc1cc(C=c2sc3nc4ccccc4n3c2=O)c(C)n1-c1ccccn1` [2-[(2,5-dimethyl-1-pyridin-2-yl-pyrrol-3-yl)methylidene]-[1,3]thiazolo[3,2-a]benzimidazol-1-one] and `O=C(Nc1nc(-c2ccccn2)cs1)c1ccc(Cl)s1` [5-chloranyl-N-(4-pyridin-2-yl-1,3-thiazol-2-yl)thiophene-2-carboxamide] cannot be ordered by IC50: > 0.00503 µM for the first, 4 µM for the second.

`COc1cc(NS(=O)(=O)c2ccc(C)cc2)c2ncccc2c1` [SMR000071147] and `Cc1cc(C)n(-c2ccc3cccc(NS(C)(=O)=O)c3n2)n1` [MLS000062301] are within 1.5-fold of each other in IC50: 5.2 µM for the first, 4.32 µM for the second.

First: CCCc1ccc(-c2ccc(F)c(N)c2)nc1 [2-fluoranyl-5-(5-propylpyridin-2-yl)aniline]
Second: O=C(O)c1cccc(COc2ccc(CO)cc2Cl)c1 [3-[(2-chloro-4-methylol-phenoxy)methyl]benzoic acid]
The IC50 of the first is 18-fold higher: 6 µM for the first, 0.329 µM for the second.

Compared with `COc1ccc(C(=O)NC(=O)Nc2cc(C)ccn2)cc1` [4-methoxy-N-[(4-methyl-2-pyridyl)carbamoyl]benzamide], `COc1ccccc1-c1cc(C(F)(F)F)nc(S(=O)(=O)CCCC(=O)NC(C)C)n1` [4-[4-(2-methoxyphenyl)-6-(trifluoromethyl)pyrimidin-2-yl]sulfonyl-N-propan-2-yl-butanamide] is 2.8-fold higher in IC50: 3.29 µM for the first, 9.35 µM for the second.

Compared with `Clc1ccc(OCCN2CCN(c3ncnc4sccc34)CC2)cc1` [4-[4-[2-(4-chloranylphenoxy)ethyl]piperazin-1-yl]thieno[2,3-d]pyrimidine], `Oc1c(CN2CCOCC2)cc(COCc2ccccc2)c2cccnc12` [5-(benzoxymethyl)-7-(morpholinomethyl)quinolin-8-ol] is 4.1-fold higher in IC50: 1.44 µM for the first, 5.97 µM for the second.

First: CCOC(=O)c1[n-]c2ccccc2c1[N+]#N [(Z)-(3-diazonio-2-indolylidene)-ethoxymethanolate]
Second: CC1CCN(c2nc3ccc(C(=O)O)cc3s2)CC1 [2-(4-methyl-1-piperidinyl)-1,3-benzothiazole-6-carboxylic acid]
The IC50 of the first is 40-fold higher: 13.2 µM for the first, 0.329 µM for the second. The second is the more potent here.

Compared with `Cc1ccc(-c2csc(N3CCC(NS(=O)(=O)c4ccc5c(c4)OCCO5)CC3)n2)cc1` [N-[1-[4-(4-methylphenyl)-1,3-thiazol-2-yl]piperidin-4-yl]-2,3-dihydro-1,4-benzodioxine-6-sulfonamide], `c1ccc(-c2noc(-c3ccc4c(c3)OCO4)n2)nc1` [2-[5-(1,3-benzodioxol-5-yl)-1,2,4-oxadiazol-3-yl]pyridine] is 4.7-fold lower in IC50: 5.97 µM for the first, 1.26 µM for the second.

Molecule `Cn1ncnc2c(=O)n(C)c(=O)nc1-2` has an IC50 of 0.633 µM.

Same assay, conditions: inactive by the depositor's call

Going from `CCCOC(=O)c1[nH]c2c(c1C)C(=O)CC(c1cc(OC)c(OC)c(OC)c1)C2` (stereo not drawn) [MLS000116504] to `COc1cc2c(cc1OC)C(C)N(C(=O)c1cc3ccccc3o1)CC2` (stereo not drawn) [1-benzofuran-2-yl-(6,7-dimethoxy-1-methyl-3,4-dihydro-1H-isoquinolin-2-yl)methanone], the IC50 rises from 11.5 µM to 19 µM (1.7-fold). The first is the more potent here.

Compared with `Cc1cc(C)nc(SCC(=O)Nc2ccc(N3CCOCC3)c(Cl)c2)n1` [MLS000066583], `Cc1noc(C)c1S(=O)(=O)Nc1ccc(C(=O)N2CCN(c3ccc(Cl)cc3)CC2)cc1` [MLS000045033] is 1.6-fold higher in IC50: 13.3 µM for the first, 21.1 µM for the second.

`Cc1ccc(F)cc1NC(=O)Cc1nn(C)c(=O)c2ccccc12` [MLS000047013] and `COc1ccccc1-c1cc(C(F)(F)F)nc(S(=O)(=O)CCCC(=O)Nc2cc(C)on2)n1` [4-[4-(2-methoxyphenyl)-6-(trifluoromethyl)pyrimidin-2-yl]sulfonyl-N-(5-methyl-1,2-oxazol-3-yl)butanamide] are within 1.5-fold of each other in IC50: 12.2 µM for the first, 13.2 µM for the second.

`Cc1ccc2[nH]c3c(N4CCN(Cc5ccc6c(c5)OCO6)CC4)ncnc3c2c1` and `CC(=O)c1ccc(N2CCN(c3ccc(C(F)(F)F)cn3)CC2)cc1` [1-[4-[4-[5-(trifluoromethyl)-2-pyridinyl]-1-piperazinyl]phenyl]ethanone] are within 1.5-fold of each other in IC50: 10.2 µM for the first, 11.4 µM for the second.

First: CCOC(=O)c1c(C)[nH]c(C(=O)C(C)OC(=O)c2cccc(OCc3c(C)noc3C)c2)c1C (stereo not drawn) [MLS000054923]
Second: COc1ccc2[nH]c(=O)c3c(c2c1)OC(C)(C)C=C3
The IC50 of the first is 1.6-fold lower: 10.6 µM for the first, 16.5 µM for the second. The first is the more potent here.

`CCCOc1ccccc1C1CC(=O)Nc2cc3c(cc21)OCCO3` (stereo not drawn) [9-(2-propoxyphenyl)-2,3,8,9-tetrahydro[1,4]dioxino[2,3-g]quinolin-7(6H)-one] and `CC1(C)CC(=O)C2=C(C1)Oc1nc3ccccc3cc1C2C(C#N)C#N` (stereo not drawn) [2-(1-keto-3,3-dimethyl-4,12-dihydro-2H-chromeno[2,3-b]quinolin-12-yl)malononitrile] are within 1.5-fold of each other in IC50: 10.6 µM for the first, 12.2 µM for the second.
